According to patent US9580749B2, “Dyes and labeled molecules” (Biotium, Inc., priority 2005, dated 2017):
Entries after “also recorded” stand apart in the source; their conditions may differ.

Columns and labels:
PCR reaction = experiment: Real-time PCR (qPCR) amplification of ATPB fragment in pTOPO plasmid with a fluorescent monitoring dye; assay type: biochemical; conditions: for inhibition of PCR (Ct delay) by the dye: increasing dye concentration
Protocol: The thermal regimen was set at 95° C. for 1 minute followed by 50 cycles of 15-second duration at 95° C., of 15-second duration at 55° C., and of 15-second duration at 72° C. Fluorescence was measured at the 55° C. stage.

[1] = tested on: amplicons HMBS, RPL4, SDHA, TBP; experiment: Melting curves of amplicons after qPCR; assay type: biochemical; conditions: for melting peaks of the HMBS amplification reaction (primer dimer): HMBS amplicon, FIG. 15
Protocol: SYBR Green I was reported to be advantageous in that the melting temperature of an amplicon could be detected after qPCR amplification. The melting temperature provides valuable information about the amplicon, as it is a function of the size and GC content of the amplicon. No melting temperatures could be collected from TaqMan reactions. Melting curves from four amplicons, i.e., HMBS (SEQ ID NO: 4), RPL4 (SEQ ID NO: 5), SDHA (SEQ ID NO: 6), and TBP (SEQ ID NO: 7) were measured from reactions amplified in the presence of AOAO-12 (Panel A) or SYBR Green (Panel B) and are presented in FIG. 15.
It has been reported that qPCR reactions with SYBR Green I tend to form primer-dimers, and the tendency is closely related to the concentration of SYBR Green I. It has been postulated that SYBR Green I binds to DNA so tightly that it interferes with the performance of Taq DNA polymerase. As AOAO-12 has less affinity to DNA, the interference should be alleviated.

[2] = stored in Tris buffer at 4° C.; cited from earlier work
salmon sperm DNA = experiment: Absorbance and fluorescence emission spectra of dyes without or with DNA in PBS buffer; assay type: physicochemical; conditions: for red shift of absorbance upon binding to DNA, relative to free dye: 2 mg/ml salmon sperm DNA; for red shift of absorbance upon binding to DNA, relative to free dye / spectra of the free dyes: intramolecular H-dimer (hairpin) formation: PBS buffer; for spectra of the free dyes: intramolecular H-dimer (hairpin) formation: FIG. 5
Protocol: The spectra were normalized to 1 in the absorbance plot. […] The heterodimeric dye AORO-7 comprises a monomeric AO dye and a fluorescent non-nucleic acid rosamine RO dye. Two emission peaks, contributed by AO and RO moieties, respectively, were recorded.

[3] = tested on: salmon sperm DNA or a mixture of single-stranded 20mer oligonucleotide; experiment: Fluorescence of AOAO-12 in response to different amounts of DNA (microtiter plate reader); assay type: binding; conditions: 0.1 μM dye in PBS
Protocol: It can be seen that fluorescence linearly responded to DNA up to 2.0 μg/ml (inset). At higher concentrations of DNA, the response became non-linear.

[4] = Thermo-stability of dye at 96° C. in PCR reaction buffers with PCR products; assay type: physicochemical; conditions: 96° C. for 40 minutes
Protocol: Specifically, AOAO-12 was kept in PCR reaction buffers with PCR products. The mixture was heated to 96° C. for 40 minutes. During the heating course, the mixture was brought down to 60° C. briefly to monitor the fluorescence.

nucleic acid = conditions: cited from earlier work

CCCN(CCCN(C)C)c1cc(/C=C2/Sc3ccccc3N2C)c2ccccc2[n+]1-c1ccccc1 [SYBR Green I, reference compound]
inhibition of PCR (Ct delay) by the dye (PCR reaction; qPCR): exhibited inhibition to PCR reactions; also recorded: significantly inhibits PCR at higher dye concentration | melting peaks of the HMBS amplification reaction (primer dimer) [1]: has an extra primer dimer peak | chemical stability on storage [2]: decomposes significantly over the course of a few days

CN(C)CCC[n+]1c2cc(N(C)C)ccc2cc2ccc(N(C)C)cc21.[I-] [DMAO]
red shift of absorbance upon binding to DNA, relative to free dye (salmon sperm DNA): 10 nm

C[n+]1c(C=C2C=CN(CCCCCC(=O)NCCNC(=O)CCCCCN3C=CC(=Cc4sc5ccccc5[n+]4C)c4ccccc43)c3ccccc32)sc2ccccc21 [TOTO-3]
spectra of the free dyes: intramolecular H-dimer (hairpin) formation (salmon sperm DNA; without DNA): forms an intramolecular H-dimer, or a hairpin structure

CN(C)c1ccc2cc3ccc(N(C)C)cc3[n+](CCCCCC(=O)NCCOCCNC(=O)CCCCC[n+]3c4cc(N(C)C)ccc4cc4ccc(N(C)C)cc43)c2c1 [AOAO-12]
DNA concentration up to which fluorescence responded linearly [3]: up to 2.0 μg/ml | fluorescence bound to double stranded versus single stranded DNA [3]: fluoresces more intensely when bound to double stranded DNA than when bound to single stranded DNA | final fluorescence signal strength relative to SYBR Green I (PCR reaction; qPCR, dye at higher usable concentration): several folds higher; also recorded: several times higher | inhibition of PCR (Ct delay) by the dye (PCR reaction; qPCR): without exhibiting inhibition; also recorded: little or no inhibition | melting peaks of the HMBS amplification reaction (primer dimer) [1]: only a single, clean, and specific peak | melting temperatures of amplicons relative to SYBR Green I ([1]; four amplicons, lower than SYBR Green I): about 2 degrees | DNA binding affinity ([1]; relative to SYBR Green I): binds DNA with high affinity but less tightly than SYBR Green I | height of melting peaks ([1]; relative to SYBR Green I): markedly higher | stability (fluorescence monitored at 60° C.) [4]: stable at 96 °C for 40 minutes substantially without loss of fluorescence

C[n+]1c(C=C2C=CN(CCCCCC(=O)CNCCOCCNC(=O)CCCCCN3C=CC(=Cc4sc5ccccc5[n+]4C)c4ccccc43)c3ccccc32)sc2ccccc21 [TOTO-12]
Ct and fluorescence intensity in qPCR relative to TO (PCR reaction; FIG. 11): improved Ct and improved fluorescence intensity relative to TO

CN1/C(=C/c2cc[n+](CCC[N+](C)(C)CCC[N+](C)(C)CCC[n+]3ccc(/C=C4\Sc5ccccc5N4C)c4ccccc43)c3ccccc23)Sc2ccccc21.[I-].[I-].[I-].[I-] [TOTO-1, reference compound]
spectra of the free dyes: intramolecular H-dimer (hairpin) formation (salmon sperm DNA; without DNA): has less spectral shift | inhibition of PCR (Ct delay) by the dye (PCR reaction; qPCR): completely inhibited the PCR reaction

CN(C)c1ccc2cc3ccc(=[N+](C)C)cc-3oc2c1.[Cl-] [pyronin Y]
absorption maximum (nucleic acid): 548 nm | emission maximum (nucleic acid): 565 nm

CN(C)c1ccc2cc3ccc(N(C)C)cc3nc2c1 [AO, acridine orange]
absorption wavelength λabs (nucleic acid; DNA bound): 500 nm | affinity for nucleic acid (nucleic acid): very low | extinction coefficient (nucleic acid; in M-1·cm-1 (unit assumed)): > 50,000

CC1=CC(C)(C)Nc2cc3c(cc21)C(c1ccc(C(=O)NCCCCCC(=O)NCCCCCNC(=O)CCCCC[n+]2c4cc(N(C)C)ccc4cc4ccc(N(C)C)cc42)cc1)=c1cc2c(cc1O3)=NC(C)(C)C=C2C [AORO-7]
absorption peak of rosamine dye component (salmon sperm DNA): 600 nm | emission peak of rosamine dye component (salmon sperm DNA): ~620 nm | absorption peak of AO component (salmon sperm DNA; DNA): 503 nm | emission peak of AO component (salmon sperm DNA; DNA): 523 nm

CN(C)c1ccc2cc3ccc(N(C)C)cc3[n+](CCCCCC(=O)NCCCCCNC(=O)CCCCC[n+]3c4cc(N(C)C)ccc4cc4ccc(N(C)C)cc43)c2c1 [AOAO-7]
red shift of absorbance upon binding to DNA, relative to free dye (salmon sperm DNA): 5 nm | new shorter wavelength peak in absorbance (salmon sperm DNA; free dye in PBS buffer, without DNA): 471 nm
